Several values for one entry are separate records, joined by “and”; a condition that tells them apart may be missing. Identical values can stand only once. Inconclusive results and toxic doses are left out. Peptide text beside a SMILES is read from it.
Test system: BDF1 mice, B16 melanoma ip, median survival T/C
Assay: NCI In Vivo Anticancer Drug Screen. Data for tumor model B16 Melanoma (intraperitoneal) in B6D2F1 (BDF1) mice
Conditions: endpoint: median survival time, higher = longer survival
Method in brief: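 In this screen, activity was judged from survival or tumor size in treated versus vehicle-treated tumor-bearing mice, reported as T/C.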

[1] = dose: 12.5 mg/kg/injection, schedule: Q01DX009 (ip), vehicle: saline
[2] = dose: 50.0 mg/kg/injection, schedule: Q01DX009 (ip), vehicle: saline
[3] = dose: 100.0 mg/kg/injection, schedule: Q01DX009 (ip), vehicle: saline
[4] = dose: 200.0 mg/kg/injection, schedule: Q01DX009 (ip), vehicle: saline
[5] = dose: 400.0 mg/kg/injection, schedule: Q01DX009 (ip), vehicle: saline
[6] = dose: 12.5 mg/kg/injection, schedule: Q01DX009 (ip), vehicle: saline with Tween-80
[7] = dose: 25.0 mg/kg/injection, schedule: Q01DX009 (ip), vehicle: saline with Tween-80
[8] = dose: 50.0 mg/kg/injection, schedule: Q01DX009 (ip), vehicle: saline with Tween-80
[9] = dose: 100.0 mg/kg/injection, schedule: Q01DX009 (ip), vehicle: saline with Tween-80

## OCC1OC(n2cnc3c(Cl)ncnc32)C(O)C1O (stereo not drawn)
[1]
  T/C: 123 % of control
dose: 25.0 mg/kg/injection, schedule: Q01DX009 (ip), vehicle: saline
  T/C: 102 % of control
[2]
  T/C: 108 % of control
[3]
  T/C: 105 % of control
[4]
  T/C: 106 % of control
[5]
  T/C: 106 % of control

## [Cl][Pt+2][Cl].[NH-]CC1(C[NH-])CCC1
dose: 1.2 mg/kg/injection, schedule: Q01DX009 (ip), vehicle: carboxymethylcellulose (CMC)
  T/C: 159 % of control
dose: 2.4 mg/kg/injection, schedule: Q01DX009 (ip), vehicle: carboxymethylcellulose (CMC)
  T/C: 168 % of control
dose: 3.6 mg/kg/injection, schedule: Q01DX009 (ip), vehicle: carboxymethylcellulose (CMC)
  T/C: 169 % of control

## O=CC=O
[6]
  T/C: 104 % of control
[7]
  T/C: 106 % of control
[8]
  T/C: 108 % of control
[9]
  T/C: 123 % of control

## O=CNC(Cc1ccccc1)Cc1ccccc1
dose: 5.0 mg/kg/injection, schedule: Q01DX009 (ip), vehicle: Klucel (hydroxypropylcellulose) (HPC)
  T/C: 96 % of control
dose: 10.0 mg/kg/injection, schedule: Q01DX009 (ip), vehicle: Klucel (hydroxypropylcellulose) (HPC)
  T/C: 100 % of control
dose: 20.0 mg/kg/injection, schedule: Q01DX009 (ip), vehicle: Klucel (hydroxypropylcellulose) (HPC)
  T/C: 100 % of control

## Clc1ccc2c3c(cccc13)CC2
dose: 5.0 mg/kg/injection, schedule: Q01DX009 (ip), vehicle: saline with Tween-80
  T/C: 87 % of control
dose: 10.0 mg/kg/injection, schedule: Q01DX009 (ip), vehicle: saline with Tween-80
  T/C: 92 % of control
dose: 20.0 mg/kg/injection, schedule: Q01DX009 (ip), vehicle: saline with Tween-80
  T/C: 87 % of control
dose: 40.0 mg/kg/injection, schedule: Q01DX009 (ip), vehicle: saline with Tween-80
  T/C: 87 % of control

## N#CCCSC(=S)C1CCCC1=N (stereo not drawn)
[6]
  T/C: 112 % of control
[7]
  T/C: 106 % of control
[8]
  T/C: 103 % of control
[9]
  T/C: 103 % of control
dose: 200.0 mg/kg/injection, schedule: Q01DX009 (ip), vehicle: saline with Tween-80
  T/C: 108 % of control

## O=C1C=CC(=O)c2c(O)c(CBr)c(CBr)c(O)c21
dose: 6.25 mg/kg/injection, schedule: Q01DX009 (ip), vehicle: Klucel (hydroxypropylcellulose) (HPC)
  T/C: 102 % of control
dose: 12.5 mg/kg/injection, schedule: Q01DX009 (ip), vehicle: Klucel (hydroxypropylcellulose) (HPC)
  T/C: 101 % of control
dose: 25.0 mg/kg/injection, schedule: Q01DX009 (ip), vehicle: Klucel (hydroxypropylcellulose) (HPC)
  T/C: 100 % of control
dose: 50.0 mg/kg/injection, schedule: Q01DX009 (ip), vehicle: Klucel (hydroxypropylcellulose) (HPC)
  T/C: 94 % of control

## O=C1C=C2C(=CCOC2O)O1 (stereo not drawn)
dose: 0.39 mg/kg/injection, schedule: Q01DX009 (ip), vehicle: Klucel (hydroxypropylcellulose) (HPC)
  T/C: 96 % of control
dose: 0.75 mg/kg/injection, schedule: Q01DX009 (ip), vehicle: Klucel (hydroxypropylcellulose) (HPC)
  T/C: 106 % of control
dose: 1.5 mg/kg/injection, schedule: Q01DX009 (ip), vehicle: Klucel (hydroxypropylcellulose) (HPC)
  T/C: 96 % of control
dose: 3.0 mg/kg/injection, schedule: Q01DX009 (ip), vehicle: Klucel (hydroxypropylcellulose) (HPC)
  T/C: 86 % of control

## C1CN1c1nc(N2CC2)nc(N2CC2)n1
dose: 0.05 mg/kg/injection, schedule: Q01DX009 (ip), vehicle: saline
  T/C: 97 % of control and 108 % of control
dose: 0.06 mg/kg/injection, schedule: Q01DX009 (ip), vehicle: saline
  T/C: 103 % of control
dose: 0.06 mg/kg/injection, schedule: Q01DX009 (ip), vehicle: suspension in saline
  T/C: 103 % of control
dose: 0.1 mg/kg/injection, schedule: Q01DX009 (ip), vehicle: saline
  T/C: 103 % of control and 109 % of control and 120 % of control
dose: 0.12 mg/kg/injection, schedule: Q01DX009 (ip), vehicle: saline with Tween-80
  T/C: 107 % of control
dose: 0.12 mg/kg/injection, schedule: Q01DX009 (ip), vehicle: suspension in saline
  T/C: 100 % of control
dose: 0.13 mg/kg/injection, schedule: Q01DX009 (ip), vehicle: saline sonified
  T/C: 94 % of control and 96 % of control
dose: 0.13 mg/kg/injection, schedule: Q01DX009 (ip), vehicle: saline with Tween-80
  T/C: 102 % of control and 105 % of control
dose: 0.25 mg/kg/injection, schedule: Q01DX009 (ip), vehicle: saline sonified
  T/C: 96 % of control and 100 % of control
dose: 0.25 mg/kg/injection, schedule: Q01DX009 (ip), vehicle: saline with Tween-80
  T/C: 107 % of control and 108 % of control and 119 % of control
dose: 0.25 mg/kg/injection, schedule: Q01DX009 (ip), vehicle: suspension in saline
  T/C: 108 % of control
dose: 0.3 mg/kg/injection, schedule: Q01DX009 (ip), vehicle: saline
  T/C: 150 % of control
dose: 0.5 mg/kg/injection, schedule: Q01DX009 (ip), vehicle: saline sonified
  T/C: 96 % of control and 101 % of control
dose: 0.5 mg/kg/injection, schedule: Q01DX009 (ip), vehicle: saline with Tween-80
  T/C: 105 % of control and 114 % of control and 119 % of control
dose: 0.5 mg/kg/injection, schedule: Q01DX009 (ip), vehicle: suspension in saline
  T/C: 124 % of control
dose: 0.5 mg/kg/injection, schedule: Q08DX002 (ip), vehicle: saline sonified
  T/C: 98 % of control and 103 % of control
dose: 0.5 mg/kg/injection, schedule: Q08DX002 (ip), vehicle: saline with Tween-80
  T/C: 100 % of control and 119 % of control
dose: 1.0 mg/kg/injection, schedule: Q01DX009 (ip), vehicle: suspension in saline
  T/C: 109 % of control
dose: 1.0 mg/kg/injection, schedule: Q08DX002 (ip), vehicle: saline sonified
  T/C: 108 % of control and 114 % of control
dose: 1.0 mg/kg/injection, schedule: Q08DX002 (ip), vehicle: saline with Tween-80
  T/C: 102 % of control and 113 % of control and 116 % of control
dose: 2.0 mg/kg/injection, schedule: Q08DX002 (ip), vehicle: saline sonified
  T/C: 105 % of control
dose: 2.0 mg/kg/injection, schedule: Q08DX002 (ip), vehicle: saline with Tween-80
  T/C: 123 % of control
dose: 4.0 mg/kg/injection, schedule: Q08DX002 (ip), vehicle: saline with Tween-80
  T/C: 90 % of control and 105 % of control

## Cc1cc2oc(C)[n+](Cc3ccccc3)c2cc1C
[8]
  T/C: 111 % of control
[9]
  T/C: 98 % of control

## Clc1ccc2c(c1)/C(=C/c1cccnc1)c1cc(Cl)cc(Cl)c1-2
[8]
  T/C: 86 % of control

## O=C1C(NCC(O)CO)=C(N2CC2)C(=O)C(NCC(O)CO)=C1N1CC1 (stereo not drawn)
dose: 1.0 mg/kg/injection, schedule: Q01DX009 (ip), vehicle: saline
  T/C: 95 % of control
dose: 2.0 mg/kg/injection, schedule: Q01DX009 (ip), vehicle: saline
  T/C: 121 % of control
dose: 4.0 mg/kg/injection, schedule: Q01DX009 (ip), vehicle: saline
  T/C: 123 % of control

## O=C(CCCN1CCC2(CC1)C(=O)NCN2c1ccccc1)c1ccc(F)cc1
dose: 0.39 mg/kg/injection, schedule: Q01DX009 (ip), vehicle: saline
  T/C: 92 % of control
dose: 0.78 mg/kg/injection, schedule: Q01DX009 (ip), vehicle: saline
  T/C: 89 % of control
dose: 1.56 mg/kg/injection, schedule: Q01DX009 (ip), vehicle: saline
  T/C: 94 % of control

## O=c1[nH]c2ccccc2c2cc3ccccc3cc12
dose: 6.25 mg/kg/injection, schedule: Q01DX009 (ip), vehicle: saline
  T/C: 94 % of control
[1]
  T/C: 86 % of control

## Clc1ccc(C=Nc2ccc3c(c2)Cc2ccccc2-3)cc1
dose: 100.0 mg/kg/injection, schedule: Q01DX009 (ip), vehicle: Klucel (hydroxypropylcellulose) (HPC)
  T/C: 93 % of control
dose: 200.0 mg/kg/injection, schedule: Q01DX009 (ip), vehicle: Klucel (hydroxypropylcellulose) (HPC)
  T/C: 93 % of control
dose: 400.0 mg/kg/injection, schedule: Q01DX009 (ip), vehicle: Klucel (hydroxypropylcellulose) (HPC)
  T/C: 96 % of control

## NC(CCC(=O)O)C(=O)NC(CCC(=O)O)C(=O)O (stereo not drawn) (H-Glu-Glu-OH; configuration not given here)
[2]
  T/C: 97 % of control
[3]
  T/C: 96 % of control
[4]
  T/C: 93 % of control
[5]
  T/C: 91 % of control

## CCN(CC)CCN(C)C
[2]
  T/C: 118 % of control
[3]
  T/C: 112 % of control
[4]
  T/C: 103 % of control

## CCC(=O)Nc1cccc(Cl)c1
dose: 75.0 mg/kg/injection, schedule: Q04DX003 (ip), vehicle: saline with Tween-80
  T/C: 110 % of control
dose: 150.0 mg/kg/injection, schedule: Q04DX003 (ip), vehicle: saline with Tween-80
  T/C: 97 % of control
dose: 300.0 mg/kg/injection, schedule: Q04DX003 (ip), vehicle: saline with Tween-80
  T/C: 100 % of control

## CCCC(=O)OCc1ccc(Cl)c(Cl)c1
dose: 16.5 mg/kg/injection, schedule: Q04DX003 (ip), vehicle: saline with Tween-80
  T/C: 91 % of control
[7]
  T/C: 93 % of control
dose: 25.0 mg/kg/injection, schedule: Q04DX003 (ip), vehicle: saline with Tween-80
  T/C: 102 % of control
dose: 37.5 mg/kg/injection, schedule: Q04DX003 (ip), vehicle: saline with Tween-80
  T/C: 102 % of control
[8]
  T/C: 97 % of control
dose: 50.0 mg/kg/injection, schedule: Q04DX003 (ip), vehicle: saline with Tween-80
  T/C: 118 % of control
[9]
  T/C: 100 % of control
dose: 100.0 mg/kg/injection, schedule: Q04DX003 (ip), vehicle: saline with Tween-80
  T/C: 123 % of control
